Measurements from patent publication US12459957B2, “Therapeutic compounds and methods” (GENENTECH, INC., priority 2021, dated 2025).
Entries after “also recorded” stand apart in the source; their conditions may differ.

Experiments:
[1] = tested on: neutrophils (PMA-stimulated NETosis); experiment: Quantification of NETosis using SYTOX Green; assay type: cell-based, human; settings: for NETosis (qualitative): polymorphonuclear leukocytes, FIG. 1
Summary of the method: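 SYTOX Green-stained neutrophils imaged in phase and fluorescence; total cells counted from phase images, NETosis assigned by DNA area against a per-experiment training set. Controls: unstimulated and PMA-stimulated pyocyanin-inhibited (negative), PMA-stimulated (positive); value is NET-forming cells as % of total.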

[2] = tested on: neutrophils (PMA-stimulated ROS); experiment: ROS detection assay (ROS-Glo, H2O2); assay type: cell-based; settings: Neutrophil; human neutrophils, 30 min preincubation, 50 nM PMA for 30 min
Method: ROS were measured in neutrophils using the ROS-Glo bioluminescent assay (Promega) for the direct detection of H2O2. Neutrophils were isolated from fresh human blood using a biphasic Histopaque gradient as described here. Cells (100 uL per well) were plated in 96-well plates at a density of 200,000 cells/mL in high glucose DMEM medium. Cells were preincubated with either DMSO vehicle or compounds (10-point dilution curve starting at 2 uM with 3-fold serial dilution) for 30 min, and then stimulated with 50 nM PMA for 30 min. Luminescence, after the addition of H2O2 substrate solution for 20 min, and then ROS-Glo detection solution for 20 min, was recorded on a luminescence plate reader. The fifty percent inhibitory concentration (IC50) was determined with GraphPad Prism by plotting the assay output (RLU) versus the logarithm of the compound concentration using a non-linear sigmoid with variable slope algorithm with the default curve-fitting parameters in the Prism software.

[3] = biological target: T1, phosphofructokinase-1 liver type (PFKL) (Homo sapiens, UniProt P17858); experiment: PFKL activation; assay type: biochemical
T1 sequence (P17858 1-780): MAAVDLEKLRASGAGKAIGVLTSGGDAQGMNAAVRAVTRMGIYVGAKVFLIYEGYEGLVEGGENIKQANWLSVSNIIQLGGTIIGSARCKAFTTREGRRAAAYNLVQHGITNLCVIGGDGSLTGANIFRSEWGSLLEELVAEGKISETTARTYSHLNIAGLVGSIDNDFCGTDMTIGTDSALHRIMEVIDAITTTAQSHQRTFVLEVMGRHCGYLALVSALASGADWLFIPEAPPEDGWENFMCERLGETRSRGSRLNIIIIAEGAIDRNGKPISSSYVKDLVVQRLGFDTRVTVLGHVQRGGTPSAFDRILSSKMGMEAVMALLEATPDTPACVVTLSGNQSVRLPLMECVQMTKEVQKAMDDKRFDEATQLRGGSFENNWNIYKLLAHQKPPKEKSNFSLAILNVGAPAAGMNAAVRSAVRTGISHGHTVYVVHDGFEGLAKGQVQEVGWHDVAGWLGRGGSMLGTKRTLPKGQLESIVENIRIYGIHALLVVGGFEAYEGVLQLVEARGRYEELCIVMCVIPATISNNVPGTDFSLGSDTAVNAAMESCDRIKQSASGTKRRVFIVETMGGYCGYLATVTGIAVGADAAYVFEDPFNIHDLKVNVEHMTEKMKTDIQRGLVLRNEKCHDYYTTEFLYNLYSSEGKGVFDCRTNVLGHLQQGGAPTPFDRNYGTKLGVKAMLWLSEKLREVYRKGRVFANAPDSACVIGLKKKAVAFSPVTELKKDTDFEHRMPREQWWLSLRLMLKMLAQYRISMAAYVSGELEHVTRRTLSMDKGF

[4] = biological target: T2, phosphofructokinase-1 platelet type (PFKP) (Homo sapiens, UniProt Q01813); experiment: PFKP activation; assay type: biochemical
T2 sequence (Q01813 1-784): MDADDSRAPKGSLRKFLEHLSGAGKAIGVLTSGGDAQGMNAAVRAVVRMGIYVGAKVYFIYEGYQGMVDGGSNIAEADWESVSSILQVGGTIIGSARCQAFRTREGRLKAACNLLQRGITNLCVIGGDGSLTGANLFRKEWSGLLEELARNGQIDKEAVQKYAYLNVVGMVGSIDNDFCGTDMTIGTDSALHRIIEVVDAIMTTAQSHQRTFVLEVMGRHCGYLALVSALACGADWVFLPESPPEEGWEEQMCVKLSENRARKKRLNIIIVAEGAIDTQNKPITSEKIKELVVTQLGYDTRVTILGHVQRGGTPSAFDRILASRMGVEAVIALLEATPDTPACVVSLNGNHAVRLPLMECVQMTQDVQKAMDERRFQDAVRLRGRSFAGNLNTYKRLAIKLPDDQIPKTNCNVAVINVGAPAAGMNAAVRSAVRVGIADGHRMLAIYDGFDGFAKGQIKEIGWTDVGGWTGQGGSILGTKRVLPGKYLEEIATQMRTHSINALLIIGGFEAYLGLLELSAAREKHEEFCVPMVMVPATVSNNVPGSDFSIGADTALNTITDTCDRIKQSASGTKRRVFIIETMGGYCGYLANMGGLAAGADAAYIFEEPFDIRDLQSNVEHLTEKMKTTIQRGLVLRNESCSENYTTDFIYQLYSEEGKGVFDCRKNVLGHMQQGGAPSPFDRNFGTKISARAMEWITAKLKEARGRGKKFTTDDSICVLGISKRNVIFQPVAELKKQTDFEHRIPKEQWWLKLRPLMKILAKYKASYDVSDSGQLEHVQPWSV

[5] = biological target: T3, phosphofructokinase-1 muscle type (PFKM) (Homo sapiens, UniProt P08237); experiment: PFKM activation; assay type: biochemical
T3 sequence (P08237 1-780): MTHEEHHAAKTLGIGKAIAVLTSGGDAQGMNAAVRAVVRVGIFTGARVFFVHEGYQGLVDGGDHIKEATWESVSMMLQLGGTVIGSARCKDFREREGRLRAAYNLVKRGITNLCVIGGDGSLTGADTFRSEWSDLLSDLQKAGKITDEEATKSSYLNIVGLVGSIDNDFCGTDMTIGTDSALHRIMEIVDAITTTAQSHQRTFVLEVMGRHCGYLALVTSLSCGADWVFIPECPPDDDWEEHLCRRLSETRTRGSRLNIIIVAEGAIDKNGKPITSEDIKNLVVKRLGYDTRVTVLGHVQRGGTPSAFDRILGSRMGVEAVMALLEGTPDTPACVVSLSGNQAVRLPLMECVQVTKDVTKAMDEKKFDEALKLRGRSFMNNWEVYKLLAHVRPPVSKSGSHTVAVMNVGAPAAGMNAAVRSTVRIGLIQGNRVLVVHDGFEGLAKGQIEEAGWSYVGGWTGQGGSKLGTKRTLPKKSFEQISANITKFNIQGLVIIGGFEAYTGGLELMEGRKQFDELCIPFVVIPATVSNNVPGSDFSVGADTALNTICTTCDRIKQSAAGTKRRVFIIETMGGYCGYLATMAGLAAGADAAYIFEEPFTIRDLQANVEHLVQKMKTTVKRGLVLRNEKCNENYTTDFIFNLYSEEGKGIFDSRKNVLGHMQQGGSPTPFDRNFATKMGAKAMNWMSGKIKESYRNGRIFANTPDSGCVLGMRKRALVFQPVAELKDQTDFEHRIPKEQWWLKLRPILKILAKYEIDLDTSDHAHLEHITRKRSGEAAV

[6] = tested on: NOX2-dependent oxidative burst in neutrophils; experiment: NOX2-dependent oxidative burst in neutrophils; assay type: cell-based
[7] = tested on: GSDMD-dependent pyroptosis in primary human monocytes and human monocytic THP-1 cells; experiment: GSDMD-dependent pyroptosis, LDH release; assay type: cell-based; settings: induced by nigericin, cytoplasmic LPS or cytoplasmic poly(dA-dT)
Method: (§1) FIG. 1. […] LDH (A) or IL-1β (B) released from primary human monocytes. Bars show the mean±s.e.m. of monocytes from 3 donors. (C) Western blots of monocytes at 1 h after electroporation with LPS. FL, full length GSDMD. NT, N-terminal fragment of GSDMD. Results representative of 3 independent experiments. (D) Coomassie blue staining of recombinant GSDMD. Results representative of 3 independent experiments. (E) TR-FRET assay measuring Europium-labeled biotin released from liposomes exposed to caspase-4 and GSDMD. Symbols indicate the mean±s.d. of 3 independent experiments. (F-G) Percentage of polymorphonuclear leukocytes (PMNs) undergoing NETosis induced by PMA (F) or the stimuli indicated (G). Data are the mean±s.d. of cells from 3 donors. (H) ROS production by PMNs. Bars show the mean±s.e.m. of PMNs from 3 donors. P-values (Two-way ANOVA, means compared to medium alone) are shown if P<0.05. (I) Percentage of PMNs undergoing PMA-induced NETosis. The x-axis indicates when NA-11 was added relative to the addition of PMA (t=0). Bars show the mean±s.e.m. of PMNs from 3 donors. P-values (one-way ANOVA, means compared to medium alone) are shown if P<0.05.
(§2) LDC7559 was reported to block the pore-forming activity of GSDMD (Sollberger et al., 2018). The ability to inhibit GSDMD-dependent pyroptosis in primary human monocytes and human monocytic THP-1 cells was tested (FIG. 1A-C).

[8] = tested on: GSDMD-dependent release of interleukin-1β (IL-1β) from monocytes; experiment: GSDMD-dependent release of IL-1β from monocytes; assay type: cell-based, human; settings: in response to nigericin or poly(dA-dT)
Method: as §1, §2

GSDMD = biological target: T4, GSDMD (Homo sapiens, UniProt P57764); experiment: Western blot of LPS-induced cleavage of GSDMD in monocytes; assay type: cell-based; settings: monocytes after electroporation with LPS
T4 construct: Western blots of monocytes at 1 h after electroporation with LPS; endogenous in cells; host or cells: primary human monocytes
T4 sequence (P57764 1-484): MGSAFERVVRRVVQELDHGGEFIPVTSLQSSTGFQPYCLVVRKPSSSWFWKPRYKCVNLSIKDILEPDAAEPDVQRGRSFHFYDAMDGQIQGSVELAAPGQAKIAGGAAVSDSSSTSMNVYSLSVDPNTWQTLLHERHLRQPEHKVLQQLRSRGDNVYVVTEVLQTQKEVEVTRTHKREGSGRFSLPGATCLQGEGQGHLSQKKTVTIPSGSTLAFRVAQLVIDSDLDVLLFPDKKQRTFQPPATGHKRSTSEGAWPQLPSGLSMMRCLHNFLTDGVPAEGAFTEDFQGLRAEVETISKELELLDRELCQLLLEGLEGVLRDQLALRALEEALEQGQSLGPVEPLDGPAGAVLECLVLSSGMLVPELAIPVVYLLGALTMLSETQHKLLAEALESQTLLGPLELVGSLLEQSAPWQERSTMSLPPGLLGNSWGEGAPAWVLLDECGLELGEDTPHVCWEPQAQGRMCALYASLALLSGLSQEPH
Method: as §1, §2

[9] = biological target: T5, recombinant GSDMD / caspase-4 (Homo sapiens, UniProt P57764); experiment: Cleavage of recombinant GSDMD by caspase-4; assay type: biochemical
T5 sequence (P57764 1-484): T4 sequence (P57764 1-484)
Method: as §1, §2

[10] = biological target: T6, GSDMD pore-forming fragment (Homo sapiens, UniProt P57764); experiment: TR-FRET liposome permeabilization by GSDMD pore-forming fragment; assay type: biochemical; settings: liposomes exposed to caspase-4 and GSDMD
T6 sequence (P57764 1-275 limits assumed): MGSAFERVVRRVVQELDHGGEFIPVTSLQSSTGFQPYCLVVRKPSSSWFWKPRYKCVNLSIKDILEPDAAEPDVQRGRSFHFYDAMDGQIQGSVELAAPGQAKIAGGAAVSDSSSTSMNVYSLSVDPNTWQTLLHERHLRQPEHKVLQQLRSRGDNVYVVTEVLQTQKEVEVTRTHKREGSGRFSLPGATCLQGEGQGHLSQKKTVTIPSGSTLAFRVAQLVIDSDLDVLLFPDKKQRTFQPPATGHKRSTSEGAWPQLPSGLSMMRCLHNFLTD
Method: as §1, §2

IC50 [2] [nM] | agonism/activation of PFKL [3] | agonism of PFKP [4] | agonism of PFKM [5] | LPS-induced cleavage of GSDMD (Western blotting) (GSDMD) | cleavage of recombinant GSDMD by caspase-4 [9] | liposome permeabilization by GSDMD pore-forming fragment [10] | Compound | IC50 ([1]; Homo sapiens, Neutrophil, NETosis, SYTOX Green-stained neutrophils, PMA-stimulated) [nM] | 5 uM (% NETosis) ([1]; compound at 5 uM, NET-forming cells as percentage of total cells, vehicle 79.66, untreated 14.54) [%] | NETosis (qualitative) [1] | NOX2-dependent oxidative burst [6] | GSDMD-dependent pyroptosis (LDH release) [7] | GSDMD-dependent release of IL-1β [8]
26 | activating | failed to agonize | failed to agonize | – | – | – | CC(=O)Nc1ccc2c(c1)OCc1cc(-c3ccccc3C#CCCCO)nn1C2 [Example 6, N-(2-(2-(5-hydroxypent-1-yn-1-yl)phenyl)-4H,10H-benzo[f]pyrazolo[5,1-c][1,4]oxazepin-7-yl)acetamide] | 4 ± 0.5 | 58.67 | inhibit NETosis | inhibit | – | –
– | activating; also recorded: agonize | – | – | did not prevent | did not inhibit | Nor did it prevent | COc1ccccc1-c1cc2n(n1)Cc1ccc(NC(C)=O)cc1OC2 [LDC7559, N-(2-(2-methoxyphenyl)-4H,10H-benzo[f]pyrazolo[5,1-c][1,4]oxazepin-7-yl)acetamide] | – | – | inhibit NETosis | inhibit; also recorded: suppress | did not alter | occurred normally
